# Test results from patent US9109041B2, “Analog compounds of analgesic peptides derived from the venom of crotalus durissus terrificus snakes, their uses, compositions, methods of preparation and purification” (priority 2004, dated 2015).
# Test system: allodynia induced by constriction of the sciatic nerve
# Test: allodynia induced by chronic constriction of the sciatic nerve (von Frey hairs)
# Type: in vivo, rat
# Settings: for paw withdrawal threshold (allodynia), FM 24 h: day 14, 24 h after peptide; for paw withdrawal threshold (allodynia), FM 48 h: day 14, 48 h after peptide; for paw withdrawal threshold (allodynia), FM 72 h: day 14, 72 h after peptide; for paw withdrawal threshold (allodynia), FM 96 h: day 14, 96 h after peptide
# Procedure: For the induction of neuropathic pain, surgery was performed in the sciatic nerve, in accordance with the method described by Bennett, G. J and Xie, Y. K. (Pain, 33:87-107, 1988). The animals were anesthetized with halothane. The sciatic nerve was exposed in the middle region of the thigh, moving away the femoral biceps muscle. Close to the trifurcation of the sciatic nerve, 7 mm of distance from the trifurcation, 4 loose ligations were performed (chromed catgut 4-0) around it, distant from each other in approximately 1 mm. The bindings were performed along the nerve, up to 4-5 mm from the initial point. The incision was sutured in layers, using silk suture thread number 4-0.
# Allodynia was evaluated for quantitative testing, in response to tactile stimulus applied to the paws of the rat, according to the method described by Chaplan el al. (1994), modified. In this test, the rats were placed, individually, in plastic cages, with meshed wire at the bottom, to allow access to the paws of these animals. Briefly, a logarithmic series of 10 calibrated Semmes-Weinstein monofilaments (von Frey hairs, Aesthesiometer Semmer-Weinstein, Stoelting Co., E.U.A) was applied to the right hind paw to determine the stimulus intensity threshold stiffness required to elicit a paw withdrawal response. Log stiffness of the hairs is determined by log 10 (mg×10) having the following values (the value in grams is between parenthesis): 3.61 (0.407 g); 3.84 (0.692 g); 4.08 (1.202 g); 4.17 (1.479 g); 4.31 (2.041 g); 4.56 (3.630 g); 4.74 (5.495 g); 4.93 (8.511 g); 5.07 (11.749 g) and 5.18 (15.136 g). It is important to point out that the filaments with weight greater than 15.136 g were not employed in the studies of allodynia.
# The filaments were applied, one by one, perpendicularly, under the plantar area of both hind paws and maintained for a period of 8 seconds. The filament capable of eliciting the withdrawal of the paw, two consecutive times, was considered as the force in grams necessary to elicit the response (100% of response). In the absence of a response to the greater stimulus (15.135 g), this filament was considered as cut value.
# The behavioral responses were used to calculate the 50% paw withdrawal threshold (absolute threshold), by fitting a gaussian integral psychometric function, using a maximum-likelihood fitting method. This fitting method allows parametric analyses.
# The period of the application of the test and the treatments were the same as those used for determination of hyperalgesia (Table 12).
# The results were analyzed by comparing the means of the basal and initial measurements or, when determined, by comparing the means obtained in the different experimental groups.
# For this purpose, the animals were treated with CTOP, a specific μ receptor antagonist (20 μg/paw), nor-BNI, a specific κ receptor antagonist (50 μg/paw) or with ICI 174,864, a specific δ receptor antagonist (10 μg/paw). The antagonists were injected, by intraplantar route. The peptide was administered in the dose of 5 μg/kg, orally, immediately before the injection of the opioid antagonists.
# The results were analyzed comparing the mean values of the basal and initial measurements, or of the initial and final measurements or, when determined, by comparing the mean values obtained in the different experimental groups (Tables 15 and 16).
substance,measurement,setting,value
Xaa-Phe-Ser-Pro-Glu-Asn-Cys-Gln-Gly-Glu-Ser-Gln-Pro-Cys [SEQ ID NO: 2],"paw withdrawal threshold (allodynia), BM","0.0016 μg/kg p.o., before surgery",5.02 ± 0.03 log 10 (mg × 10)
same,"paw withdrawal threshold (allodynia), FM 1 h","0.0016 μg/kg p.o., day 14, 1 h after peptide",4.22 ± 0.00 log 10 (mg × 10)
same,"paw withdrawal threshold (allodynia), FM 3 h","0.0016 μg/kg p.o., day 14, 3 h after peptide",4.22 ± 0.00 log 10 (mg × 10)
same,"paw withdrawal threshold (allodynia), FM 24 h",0.0016 μg/kg p.o.,4.22 ± 0.00 log 10 (mg × 10)
same,"paw withdrawal threshold (allodynia), FM 48 h",0.0016 μg/kg p.o.,4.22 ± 0.00 log 10 (mg × 10)
same,"paw withdrawal threshold (allodynia), FM 72 h",0.0016 μg/kg p.o.,4.22 ± 0.00 log 10 (mg × 10)
same,"paw withdrawal threshold (allodynia), FM 96 h",0.0016 μg/kg p.o.,4.22 ± 0.00 log 10 (mg × 10)
same,"paw withdrawal threshold (allodynia), IM","0.0016 μg/kg p.o., day 14 after surgery, before peptide",4.22 ± 0.00 log 10 (mg × 10)
same,"paw withdrawal threshold (allodynia), BM","0.008 μg/kg p.o., before surgery",4.99 ± 0.02 log 10 (mg × 10)
same,"paw withdrawal threshold (allodynia), FM 1 h","0.008 μg/kg p.o., day 14, 1 h after peptide",4.22 ± 0.00 log 10 (mg × 10)
same,"paw withdrawal threshold (allodynia), FM 3 h","0.008 μg/kg p.o., day 14, 3 h after peptide",4.22 ± 0.00 log 10 (mg × 10)
same,"paw withdrawal threshold (allodynia), FM 24 h",0.008 μg/kg p.o.,4.22 ± 0.00 log 10 (mg × 10)
same,"paw withdrawal threshold (allodynia), FM 48 h",0.008 μg/kg p.o.,4.22 ± 0.00 log 10 (mg × 10)
same,"paw withdrawal threshold (allodynia), FM 72 h",0.008 μg/kg p.o.,4.22 ± 0.00 log 10 (mg × 10)
same,"paw withdrawal threshold (allodynia), FM 96 h",0.008 μg/kg p.o.,4.22 ± 0.00 log 10 (mg × 10)
same,"paw withdrawal threshold (allodynia), IM","0.008 μg/kg p.o., day 14 after surgery, before peptide",4.22 ± 0.00 log 10 (mg × 10)
same,"paw withdrawal threshold (allodynia), BM","0.04 μg/kg p.o., before surgery",4.97 ± 0.99 log 10 (mg × 10)
same,"paw withdrawal threshold (allodynia), FM 1 h","0.04 μg/kg p.o., day 14, 1 h after peptide",4.22 ± 0.00 log 10 (mg × 10)
same,"paw withdrawal threshold (allodynia), FM 3 h","0.04 μg/kg p.o., day 14, 3 h after peptide",4.22 ± 0.00 log 10 (mg × 10)
same,"paw withdrawal threshold (allodynia), FM 24 h",0.04 μg/kg p.o.,4.22 ± 0.00 log 10 (mg × 10)
same,"paw withdrawal threshold (allodynia), FM 48 h",0.04 μg/kg p.o.,4.26 ± 0.04 log 10 (mg × 10)
same,"paw withdrawal threshold (allodynia), FM 72 h",0.04 μg/kg p.o.,4.22 ± 0.00 log 10 (mg × 10)
same,"paw withdrawal threshold (allodynia), FM 96 h",0.04 μg/kg p.o.,4.22 ± 0.00 log 10 (mg × 10)
same,"paw withdrawal threshold (allodynia), IM","0.04 μg/kg p.o., day 14 after surgery, before peptide",4.22 ± 0.00 log 10 (mg × 10)
same,"paw withdrawal threshold (allodynia), BM","0.2 μg/kg p.o., before surgery",5.03 ± 0.02 log 10 (mg × 10)
same,"paw withdrawal threshold (allodynia), FM 1 h","0.2 μg/kg p.o., day 14, 1 h after peptide",4.41 ± 0.00 log 10 (mg × 10)
same,"paw withdrawal threshold (allodynia), FM 3 h","0.2 μg/kg p.o., day 14, 3 h after peptide",4.41 ± 0.00 log 10 (mg × 10)
same,"paw withdrawal threshold (allodynia), FM 24 h",0.2 μg/kg p.o.,4.41 ± 0.00 log 10 (mg × 10)
same,"paw withdrawal threshold (allodynia), FM 48 h",0.2 μg/kg p.o.,4.41 ± 0.00 log 10 (mg × 10)
same,"paw withdrawal threshold (allodynia), FM 72 h",0.2 μg/kg p.o.,4.41 ± 0.00 log 10 (mg × 10)
same,"paw withdrawal threshold (allodynia), FM 96 h",0.2 μg/kg p.o.,4.22 ± 0.00 log 10 (mg × 10)
same,"paw withdrawal threshold (allodynia), IM","0.2 μg/kg p.o., day 14 after surgery, before peptide",4.22 ± 0.00 log 10 (mg × 10)
same,"paw withdrawal threshold (allodynia), BM","1 μg/kg p.o., before surgery",5.06 ± 0.02 log 10 (mg × 10)
same,"paw withdrawal threshold (allodynia), FM 1 h","1 μg/kg p.o., day 14, 1 h after peptide",4.62 ± 0.00 log 10 (mg × 10)
same,"paw withdrawal threshold (allodynia), FM 3 h","1 μg/kg p.o., day 14, 3 h after peptide",4.62 ± 0.00 log 10 (mg × 10)
same,"paw withdrawal threshold (allodynia), FM 24 h",1 μg/kg p.o.,4.62 ± 0.00 log 10 (mg × 10)
same,"paw withdrawal threshold (allodynia), FM 48 h",1 μg/kg p.o.,4.62 ± 0.00 log 10 (mg × 10)
same,"paw withdrawal threshold (allodynia), FM 72 h",1 μg/kg p.o.,4.62 ± 0.00 log 10 (mg × 10)
same,"paw withdrawal threshold (allodynia), FM 96 h",1 μg/kg p.o.,4.22 ± 0.00 log 10 (mg × 10)
same,"paw withdrawal threshold (allodynia), IM","1 μg/kg p.o., day 14 after surgery, before peptide",4.23 ± 0.01 log 10 (mg × 10)
same,"paw withdrawal threshold (allodynia), FM 1 h","5 μg/kg p.o. + CTOP 20 μg/paw i.pl., 1 h after peptide",5.00 ± 0.05 log 10 (mg × 10)
same,"paw withdrawal threshold (allodynia), FM 3 h","5 μg/kg p.o. + CTOP 20 μg/paw i.pl., 3 h after peptide",4.99 ± 0.02 log 10 (mg × 10)
same,"paw withdrawal threshold (allodynia), BM","5 μg/kg p.o. + CTOP 20 μg/paw i.pl., before surgery",4.99 ± 0.02 log 10 (mg × 10)
same,"paw withdrawal threshold (allodynia), IM","5 μg/kg p.o. + CTOP 20 μg/paw i.pl., day 14, before peptide",4.29 ± 0.04 log 10 (mg × 10)
same,"paw withdrawal threshold (allodynia), FM 1 h","5 μg/kg p.o. + ICI 174,864 10 μg/paw i.pl., 1 h after peptide",4.22 ± 0 log 10 (mg × 10)
same,"paw withdrawal threshold (allodynia), FM 3 h","5 μg/kg p.o. + ICI 174,864 10 μg/paw i.pl., 3 h after peptide",4.22 ± 0 log 10 (mg × 10)
same,"paw withdrawal threshold (allodynia), BM","5 μg/kg p.o. + ICI 174,864 10 μg/paw i.pl., before surgery",4.96 ± 0.04 log 10 (mg × 10)
same,"paw withdrawal threshold (allodynia), IM","5 μg/kg p.o. + ICI 174,864 10 μg/paw i.pl., day 14, before peptide",4.29 ± 0.04 log 10 (mg × 10)
same,"paw withdrawal threshold (allodynia), FM 1 h","5 μg/kg p.o. + nor-BNI 50 μg/paw i.pl., 1 h after peptide",4.62 ± 0 log 10 (mg × 10)
same,"paw withdrawal threshold (allodynia), FM 3 h","5 μg/kg p.o. + nor-BNI 50 μg/paw i.pl., 3 h after peptide",4.62 ± 0 log 10 (mg × 10)
same,"paw withdrawal threshold (allodynia), BM","5 μg/kg p.o. + nor-BNI 50 μg/paw i.pl., before surgery",5.03 ± 0.02 log 10 (mg × 10)
same,"paw withdrawal threshold (allodynia), IM","5 μg/kg p.o. + nor-BNI 50 μg/paw i.pl., day 14, before peptide",4.25 ± 0.03 log 10 (mg × 10)
same,"paw withdrawal threshold (allodynia), FM 1 h","5 μg/kg p.o., 1 h after peptide (Table 16)",5.08 ± 0.01 log 10 (mg × 10)
same,"paw withdrawal threshold (allodynia), FM 3 h","5 μg/kg p.o., 3 h after peptide (Table 16)",5.09 ± 0 log 10 (mg × 10)
same,"paw withdrawal threshold (allodynia), BM","5 μg/kg p.o., before surgery (Table 12)",4.99 ± 0.03 log 10 (mg × 10)
same,"paw withdrawal threshold (allodynia), BM","5 μg/kg p.o., before surgery (Table 16)",5.00 ± 0.03 log 10 (mg × 10)
same,"paw withdrawal threshold (allodynia), FM 1 h","5 μg/kg p.o., day 14, 1 h after peptide (Table 12)",4.94 ± 0.05 log 10 (mg × 10)
same,"paw withdrawal threshold (allodynia), FM 3 h","5 μg/kg p.o., day 14, 3 h after peptide (Table 12)",4.98 ± 0.04 log 10 (mg × 10)
same,"paw withdrawal threshold (allodynia), FM 24 h",5 μg/kg p.o.,4.97 ± 0.03 log 10 (mg × 10)
same,"paw withdrawal threshold (allodynia), FM 48 h",5 μg/kg p.o.,4.93 ± 0.04 log 10 (mg × 10)
same,"paw withdrawal threshold (allodynia), FM 72 h",5 μg/kg p.o.,4.85 ± 0.02 log 10 (mg × 10)
same,"paw withdrawal threshold (allodynia), FM 96 h",5 μg/kg p.o.,4.21 ± 0.01 log 10 (mg × 10)
same,"paw withdrawal threshold (allodynia), IM","5 μg/kg p.o., day 14, before peptide (Table 16)",4.27 ± 0.04 log 10 (mg × 10)
same,"paw withdrawal threshold (allodynia), IM","5 μg/kg p.o., day 14 after surgery, before peptide (Table 12)",4.23 ± 0.00 log 10 (mg × 10)
same,duration of the anti-allodynic effect,one single administration p.o.,up to 3 days
same,effect of the mu opioid receptor antagonist on the anti-allodynic effect of the peptide,"peptide 5 μg/kg p.o., CTOP 20 μg/paw i.pl.",did not alter
same,effect of the delta opioid receptor antagonist on the anti-allodynic effect of the peptide,"peptide 5 μg/kg p.o., ICI 174,864 10 μg/paw i.pl.",blocked
same,effect of the kappa opioid receptor antagonist on the anti-allodynic effect of the peptide,"peptide 5 μg/kg p.o., nor-BNI 50 μg/paw i.pl.",partially inhibited
